# Patent publication US8338608B2, “Inhibitors of ion channels” (Icagen Inc., priority 2005, dated 2012)
# Where two headings read alike, the source gives them in different places.
# Molecular target: T1, hSCN3A (Homo sapiens, UniProt Q9NY46)
# T1 construct: expressed in transfected cells
# Assay: SCN3A inhibitory activity in HEK cells stably expressing hSCN3A (whole-cell patch clamp / radiotracer efflux HTS)
# Type: cell-based
# [1] = HEK cells stably transfected with hSCN3A, read-out: SCN3A Inhibitory Activity
# T1 sequence (Q9NY46 whole entry): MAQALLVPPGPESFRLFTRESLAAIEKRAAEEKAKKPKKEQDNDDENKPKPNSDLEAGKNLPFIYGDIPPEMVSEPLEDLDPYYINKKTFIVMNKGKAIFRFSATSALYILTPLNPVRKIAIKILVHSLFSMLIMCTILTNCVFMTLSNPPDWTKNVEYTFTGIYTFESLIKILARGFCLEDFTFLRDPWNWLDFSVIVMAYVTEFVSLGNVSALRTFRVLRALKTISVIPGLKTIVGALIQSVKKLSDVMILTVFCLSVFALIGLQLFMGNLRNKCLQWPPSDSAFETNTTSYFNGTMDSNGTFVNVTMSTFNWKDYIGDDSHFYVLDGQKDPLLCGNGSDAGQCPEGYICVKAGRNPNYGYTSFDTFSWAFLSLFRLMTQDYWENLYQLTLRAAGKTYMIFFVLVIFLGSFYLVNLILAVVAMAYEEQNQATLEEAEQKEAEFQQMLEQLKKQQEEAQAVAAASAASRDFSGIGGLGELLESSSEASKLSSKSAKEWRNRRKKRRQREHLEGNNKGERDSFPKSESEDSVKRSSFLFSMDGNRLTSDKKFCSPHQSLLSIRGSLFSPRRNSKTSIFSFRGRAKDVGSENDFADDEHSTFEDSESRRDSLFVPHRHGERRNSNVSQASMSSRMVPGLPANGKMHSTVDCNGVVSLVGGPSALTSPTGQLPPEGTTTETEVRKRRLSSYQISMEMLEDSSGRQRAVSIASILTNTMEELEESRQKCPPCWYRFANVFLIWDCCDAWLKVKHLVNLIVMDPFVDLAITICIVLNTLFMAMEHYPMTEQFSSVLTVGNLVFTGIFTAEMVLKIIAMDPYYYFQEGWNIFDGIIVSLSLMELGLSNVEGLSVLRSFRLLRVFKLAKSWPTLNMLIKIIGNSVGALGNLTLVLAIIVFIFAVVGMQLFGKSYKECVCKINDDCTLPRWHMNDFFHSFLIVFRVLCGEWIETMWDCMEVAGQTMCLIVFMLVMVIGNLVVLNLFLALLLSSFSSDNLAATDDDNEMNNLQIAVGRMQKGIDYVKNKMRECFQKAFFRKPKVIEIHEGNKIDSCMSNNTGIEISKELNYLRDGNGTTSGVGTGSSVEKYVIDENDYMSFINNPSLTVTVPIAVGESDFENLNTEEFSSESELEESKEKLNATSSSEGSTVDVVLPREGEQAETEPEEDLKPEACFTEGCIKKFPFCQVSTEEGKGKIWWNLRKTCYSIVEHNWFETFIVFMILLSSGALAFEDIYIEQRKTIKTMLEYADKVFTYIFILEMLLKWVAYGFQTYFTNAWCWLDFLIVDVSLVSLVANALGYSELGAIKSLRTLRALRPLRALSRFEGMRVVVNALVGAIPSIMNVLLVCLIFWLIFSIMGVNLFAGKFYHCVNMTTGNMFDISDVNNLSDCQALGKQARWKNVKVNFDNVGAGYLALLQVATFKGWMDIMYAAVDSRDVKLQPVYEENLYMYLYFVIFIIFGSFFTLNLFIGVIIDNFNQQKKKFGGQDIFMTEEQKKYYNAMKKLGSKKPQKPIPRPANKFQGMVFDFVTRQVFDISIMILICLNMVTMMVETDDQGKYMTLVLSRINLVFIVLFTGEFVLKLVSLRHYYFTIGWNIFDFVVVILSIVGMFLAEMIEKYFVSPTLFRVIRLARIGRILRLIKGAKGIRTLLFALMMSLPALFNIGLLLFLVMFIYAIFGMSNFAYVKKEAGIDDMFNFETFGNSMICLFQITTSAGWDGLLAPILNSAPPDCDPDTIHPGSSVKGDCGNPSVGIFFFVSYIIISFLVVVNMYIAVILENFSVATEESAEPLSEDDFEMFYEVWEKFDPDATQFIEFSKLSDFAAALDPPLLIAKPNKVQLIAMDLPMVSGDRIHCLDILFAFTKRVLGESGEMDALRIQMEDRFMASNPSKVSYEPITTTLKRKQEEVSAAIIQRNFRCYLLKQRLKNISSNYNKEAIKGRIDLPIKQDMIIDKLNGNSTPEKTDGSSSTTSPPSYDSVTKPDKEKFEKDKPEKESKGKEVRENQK
SMILES,IC50 [1] [nM],IC50 [nM]
"O=S(=O)(NCCC(c1ccccc1)c1ccccc1)Nc1ccc(S(=O)(=O)Nc2nccs2)cc1 [Compound 2, N-(3,3-diphenylpropyl]-N′-[4-(N-thiazol-2-yl-sulfonamyl)-phenyl]-sulfamide]",< 100,–
O=S(=O)(NCCc1ccc(Cl)c(Cl)c1)Nc1ccc(S(=O)(=O)Nc2nccs2)cc1 [Compound 3],< 100,–
"CC(C)(C)c1ccc(OCCNS(=O)(=O)c2ccc(S(=O)(=O)Nc3ncc(Cl)s3)cc2)cc1 [Compound 6, Benzene-1,4-disulfonic acid 1-{[2-(4-tert-butyl-phenoxy)-ethyl]-amide} 4-[(5-chloro-thiazol-2-yl)-amide]]",< 100,–
"O=S(=O)(Nc1nccs1)c1ccc(S(=O)(=O)N2CCC(Oc3cccc(Cl)c3)CC2)cc1 [Compound 8, 4-[4-(3-Chloro-phenoxy)-piperidine-1-sulfonyl]-N-thiazol-2-yl-benzenesulfonamide]",< 100,–
"O=S(=O)(Nc1ncc(Cl)s1)c1ccc(S(=O)(=O)N2CCN(c3ccc(Cl)cc3F)CC2)cc1 [Compound 10, 4-[4-(4-Chloro-2-fluoro-phenyl)-piperazine-1-sulfonyl]-N-(5-chloro-thiazol-2-yl)-benzenesulfonamide]",< 100,–
"O=S(=O)(NCCCOc1ccc(Cl)cc1)c1ccc(S(=O)(=O)Nc2ncc(Cl)s2)cc1 [Compound 12, Benzene-1,4-disulfonic acid 1-{[3-(4-chloro-phenoxy)-propyl]-amide} 4-[(5-chloro-thiazol-2-yl)-amide]]",< 100,–
"CC(C)(CNS(=O)(=O)c1ccc(S(=O)(=O)Nc2ncc(Cl)s2)cc1)Oc1ccc(C(C)(C)C)cc1 [Compound 14, Benzene-1,4-disulfonic acid 1-{[2-(4-tert-butyl-phenoxy)-2-methyl-propyl]-amide} 4-[(5-chloro-thiazol-2-yl)-amide]]",< 100,–
"O=S(=O)(NCC1(c2ccc(Cl)cc2)CCC1)c1ccc(S(=O)(=O)Nc2nccs2)cc1 [Compound 21, Benzene-1,4-disulfonic acid 1-{[1-(4-chloro-phenyl)-cyclobutylmethyl]-amide} 4-thiazol-2-ylamide]",< 100,–
O=S(=O)(NCCC(c1ccccc1)c1ccccc1)Nc1ccc(S(=O)(=O)Nc2nccs2)nc1 [Compound 22],100 to 500,–
"O=S(=O)(NCC(c1ccccc1)c1ccccc1)c1ccc(S(=O)(=O)Nc2nccs2)cc1 [Compound 24, Benzene-1,4-disulfonic acid 1-[(2,2-diphenyl-ethyl)-amide] 4-thiazol-2-ylamide]",100 to 500,–
"O=S(=O)(Nc1ncc(Cl)s1)c1ccc(S(=O)(=O)N2CC(Oc3ncc(C(F)(F)F)cc3Cl)C2)cc1 [Compound 26, N-(5-chloro-thiazol-2-yl)-4-[3-(3-chloro-5-trifluoromethyl-pyridin-2-yloxy)-azetidine-1-sulfonyl]-benzenesulfonamide]",100 to 500,–
"O=S(=O)(Nc1ncc(Cl)s1)c1ccc(S(=O)(=O)N2CC(=Cc3ccc(Cl)c(Cl)c3)C2)cc1 [Compound 28, N-(5-chloro-thiazol-2-yl)-4-[3-(3,4-dichloro-benzylidene)-azetidine-1-sulfonyl]-benzenesulfonamide]",100 to 500,–
"O=S(=O)(Nc1nccs1)c1ccc(S(=O)(=O)N2CCC(Cc3ccc(Cl)cc3)CC2)cc1 [Compound 29, 4-[4-(4-Chloro-benzyl)-piperidine-1-sulfonyl]-N-thiazol-2-yl-benzenesulfonamide]",100 to 500,–
"CC(C)(CNS(=O)(=O)c1ccc(S(=O)(=O)Nc2nccs2)cc1)Nc1ccc(C(C)(C)C)cc1 [Compound 31, Benzene-1,4-disulfonic acid 1-{[2-(4-tert-butyl-phenylamino)-2-methyl-propyl]-amide} 4-thiazol-2-ylamide]",100 to 500,–
"O=S(=O)(NCCOc1ccc(Cl)cc1F)c1ccc(S(=O)(=O)Nc2nccs2)cc1 [Compound 34, Benzene-1,4-disulfonic acid 1-{[2-(4-chloro-2-fluoro-phenoxy)-ethyl]-amide} 4-thiazol-2-ylamide]",100 to 500,–
"CN(CCOc1ccc(C(C)(C)C)cc1)S(=O)(=O)c1ccc(S(=O)(=O)Nc2nccs2)cc1 [Compound 35, Benzene-1,4-disulfonic acid 1-{[2-(4-tert-butyl-phenoxy)-ethyl]-methyl-amide} 4-thiazol-2-ylamide]",100 to 500,–
"CC(C)(C)c1ccc(OC2(CNS(=O)(=O)c3ccc(S(=O)(=O)Nc4nccs4)cc3)CCCC2)cc1 [Compound 38, Benzene-1,4-disulfonic acid 1-{[1-(4-tert-butyl-phenoxy)-cyclopentylmethyl]-amide} 4-thiazol-2-ylamide]",100 to 500,–

# Next, values leading:
IC50 [1] [nM],IC50 [nM],SMILES
< 100,–,"O=S(=O)(Nc1ccc(S(=O)(=O)Nc2nccs2)cc1)N[C@@H]1C[C@H]1c1ccccc1 (relative stereo) [Compound 4, N-(trans-2-phenylcyclopropyl)-N′-[4-(N-thiazol-2-yl-sulfonamyl)-phenyl]-sulfamide]"
< 100,–,O=S(=O)(NCC(c1ccccc1)c1ccccc1)Nc1ccc(S(=O)(=O)Nc2nccs2)cc1 [Compound 1]
< 100,–,"O=S(=O)(NCCc1ccc(Oc2ccccc2)cc1)Nc1ccc(S(=O)(=O)Nc2nccs2)cc1 [Compound 5, N-[2-(4-phenoxyl-phenyl)-ethyl]-N′-[4-(N-thiazol-2-yl-sulfonamyl)-phenyl]-sulfamide]"
< 100,–,"CC(C)(C)CCNS(=O)(=O)c1ccc(S(=O)(=O)Nc2ncc(Cl)s2)cc1 [Compound 7, Benzene-1,4-disulfonic acid 1-[(5-chloro-thiazol-2-yl)-amide] 4-[(3,3-dimethyl-butyl)-amide]]"
< 100,–,"O=S(=O)(NCC1COc2cc(Cl)c(Cl)cc2O1)c1ccc(S(=O)(=O)Nc2nccs2)cc1 (centres unmarked) [Compound 9, Benzene-1,4-disulfonic acid 1-[(6,7-dichloro-2,3-dihydro-benzo[1,4]dioxin-2-ylmethyl)-amide] 4-thiazol-2-ylamide]"
< 100,–,"CC(C)(C)c1ccc(CNS(=O)(=O)c2ccc(S(=O)(=O)Nc3nccs3)cc2)cc1 [Compound 11, Benzene-1,4-disulfonic acid 1-(4-tert-butyl-benzylamide) 4-thiazol-2-ylamide]"
< 100,–,"CN(CCNS(=O)(=O)c1ccc(S(=O)(=O)Nc2nccs2)cc1)c1ccc(Cl)cc1 [Compound 13, Benzene-1,4-disulfonic acid 1-({2-[(4-chloro-phenyl)-methyl-amino]-ethyl}-amide) 4-thiazol-2-ylamide]"
< 100,–,"O=S(=O)(NCc1ccc(C(F)(F)F)cc1)c1ccc(S(=O)(=O)Nc2ncc(Cl)s2)cc1 [Compound 15, Benzene-1,4-disulfonic acid 1-[(5-chloro-thiazol-2-yl)-amide] 4-(4-trifluoromethyl-benzylamide)]"
< 100,–,"CC(C)(C)c1ccc(NCCNS(=O)(=O)c2ccc(S(=O)(=O)Nc3nccs3)cc2)cc1 [Compound 16, Benzene-1,4-disulfonic acid 1-{[2-(4-tert-butyl-phenylamino)-ethyl]-amide} 4-thiazol-2-ylamide]"
< 100,–,"O=S(=O)(NCC1(Oc2ccc(Cl)cc2)CCC1)c1ccc(S(=O)(=O)Nc2nccs2)cc1 [Compound 17, Benzene-1,4-disulfonic acid 1-{[1-(4-chloro-phenoxy)-cyclobutylmethyl]-amide} 4-thiazol-2-ylamide]"
< 100,–,"Cc1cc(OCCNS(=O)(=O)c2ccc(S(=O)(=O)Nc3nccs3)cc2)ccc1Cl [Compound 18, Benzene-1,4-disulfonic acid 1-{[2-(4-chloro-3-methyl-phenoxy)-ethyl]-amide} 4-thiazol-2-ylamide]"
< 100,–,"O=S(=O)(Nc1nccs1)c1ccc(S(=O)(=O)N2CCC[C@H]2COc2ccc(Cl)cc2)cc1 [Compound 19, 4-[(S)-2-(4-chloro-phenoxymethyl)-pyrrolidine-1-sulfonyl]-N-thiazol-2-yl-benzenesulfonamide]"
< 100,–,"O=S(=O)(NCC1(Oc2ccc(Cl)cc2F)CCC1)c1ccc(S(=O)(=O)Nc2nccs2)cc1 [Compound 20, Benzene-1,4-disulfonic acid 1-{[1-(4-chloro-2-fluoro-phenoxy)-cyclobutylmethyl]-amide} 4-thiazol-2-ylamide]"
100 to 500,–,"O=S(=O)(Nc1nccs1)c1ccc(NS(=O)(=O)N2CCN(c3ccc(Cl)c(Cl)c3)CC2)cc1 [Compound 23, 4-(3,4-Dichloro-phenyl)-piperazine-1-sulfonic acid [4-(thiazol-2-ylsulfamoyl)-phenyl]-amide]"
100 to 500,–,"O=S(=O)(NCCc1ccc(Cl)c(Cl)c1)c1cc(F)c(S(=O)(=O)Nc2nccs2)cc1F [Compound 25, 2,5-Difluoro-benzene-1,4-disulfonic acid 1-{[2-(3,4-dichloro-phenyl)-ethyl]-amide} 4-thiazol-2-ylamide]"
100 to 500,–,"O=S(=O)(NCCc1ccc(Cl)cc1)c1ccc(S(=O)(=O)Nc2nccs2)cc1 [Compound 27, Benzene-1,4-disulfonic acid 1-{[2-(4-chloro-phenyl)-ethyl]-amide} 4-thiazol-2-ylamide]"
100 to 500,–,"O=S(=O)(Nc1nccs1)c1ccc(S(=O)(=O)NC2CCCCCC2)cc1 [Compound 30, Benzene-1,4-disulfonic acid 1-cycloheptylamide 4-thiazol-2-ylamide]"
100 to 500,–,"C[C@H](CNS(=O)(=O)c1ccc(S(=O)(=O)Nc2ncc(Cl)s2)cc1)Oc1ccc(Cl)cc1 [Compound 32, Benzene-1,4-disulfonic acid 1-{[(R)-2-(4-chloro-phenoxy)-propyl]-amide} 4-[(5-chloro-thiazol-2-yl)-amide]]"
100 to 500,–,"C[C@@H](CNS(=O)(=O)c1ccc(S(=O)(=O)Nc2ncc(Cl)s2)cc1)Oc1ccc(Cl)cc1 [Compound 33, Benzene-1,4-disulfonic acid 1-{[(S)-2-(4-chloro-phenoxy)-propyl]-amide} 4-[(5-chloro-thiazol-2-yl)-amide]]"
–,100 to 500,"O=S(=O)(Nc1nccs1)c1ccc(S(=O)(=O)N2CC(COc3cccc(Cl)c3)C2)cc1 [Compound 36, 4-[3-(3-Chloro-phenoxymethyl)-azetidine-1-sulfonyl]-N-thiazol-2-yl-benzenesulfonamide]"
100 to 500,–,"COc1ccc(CNS(=O)(=O)c2ccc(S(=O)(=O)Nc3nccs3)cc2)cc1Cl [Compound 37, Benzene-1,4-disulfonic acid 1-(3-chloro-4-methoxy-benzylamide) 4-thiazol-2-ylamide]"
